Source: patent publication US12161695B2 (priority 2018, dated 2024)
“Also recorded” adds a separate entry of the source. Read-outs that look alike come from different tables or passages of the source. Where no end group is shown, it is not given here.

What was measured:
[1] = cited from earlier work
human islets = assay: glucose-stimulated insulin secretion in human islets; type: cell-based
Procedure: The incubation medium was subsequently collected, the islets sonicated briefly (1-2 periods of 10 s) in acidic ethanol and frozen overnight. Samples from the medium and the islets were appropriately diluted and analyzed in duplicates for insulin using an immunoassay kit from Mesoscale Discovery (Rockville, MD, USA). Secretion was normalized to insulin content and expressed in relation to that at 20 mM glucose. In some experiments, the islets were placed in a closed 10-μL Teflon tubing perfusion. The chamber was perfused with buffer at a rate of 60 μL/min (AutoMate Scientific, Berkeley, CA). […] Three fractions were collected for each condition and analyzed for insulin. The results are presented as one data point per condition, which represents the average of the last two fractions at that condition. The first fraction was excluded since it was influenced by the preceding condition.

[2] = test system: insulin granule exocytosis in human islet cells; assay: insulin granule exocytosis imaging by TIRF microscopy; type: cell-based
Procedure: The islets were dissociated into single cells in 0.0025% trypsin in cell dissociation buffer (Hank's based) for 3-5 minutes. Cells were washed once in serum-containing medium, plated onto 22-mm polylysine-coated coverslips and allowed to settle overnight. Adenovirus particles adNPY-Venus (Tsuboi et al., 2006) or adNPY-mCherry (Meur et al., 2010) was added and cells were imaged 24-36 hours later. Cells selected for experiments expressed the granule marker and appeared healthy. Cells were imaged in a standard solution containing (mM): 138 NaCl, 5.6 KCl, 1.2 MgCl2, 2.6 CaCl2, 20 D-glucose, 5 HEPES (pH 7.4 with NaOH) (Barg et al., 2002; Gandasi and Barg, 2014). For depolarization dependent exocytosis experiments, glucose was 10 mM and the solution supplemented with 2 μM forskolin and 200 μM diazoxide, a K^+-ATP-channel opener that prevents glucose-dependent depolarization. Exocytosis was then evoked with high K^+ solution (75 mM KCl equimolarly replacing NaCl). High K^+ was applied by computer-timed local pressure ejection through a glass pipette similar to those used for patch clamp. All experiments were carried out at ˜32° C. Cells were imaged using a custom-built lens-type total internal reflection (TIRF) microscope based on an Axiovert 135 microscope with a 100×/1.45 objective (Carl Zeiss). Excitation was from a DPSS laser at 491 (Cobolt, Stockholm, Sweden), controlled with an acousto-optical tunable filter (AA-Opto, France) and using dichroic Di01-R488/561 (Semrock) and emission filter FF01-523/610 (Semrock). Scaling was 160 nm per pixel and exposure time 100 ms per frame at 10 frames/s. Exocytosis events were found by eye. The moment of exocytosis was defined as the first significant change (2 standard deviations) from the pre-exocytosis baseline. This definition applied to both types of events, with or without preceding flash. The decay time was then defined as the time from exocytosis until the signal reached less than one third of the amplitude of the event. Traces were read out as DF, defined as average fluorescence in a 0.5 μm circle minus the average fluorescence in a surrounding annulus of 0.8 μm. The point of exocytosis was calculated by fitting the granule fluorescence during exocytosis with a discontinuous function (Eq 1), which assumes constant fluorescence before fusion, an inverted exponential decay just after fusion, and finally exponential decay during content release:
where t is time; c is average fluorescence in a 0.48 μm wide circle at the granule site; A1, A2 and A3 are the fluorescence values at the plateaus; τ1 and τ2 are the decay constants for the fluorescence increase after fusion and content release; and t1 and t2 are the times of fusion and release, respectively.

iGABAARI = assay: whole-cell patch-clamp single-channel currents in β cells of intact human islets, iGABAARI; type: cell-based; settings: for GABA-activated single-channel conductance: 100 nM GABA; for reduction of Ka for GABA activation in T2D donors: T2D vs ND donors
Procedure: (§1) Human islets were generously provided by the Nordic Network for Clinical Islet Transplantation, supported by EXODIAB and the Juvenile Diabetes Research Foundation. All procedures were approved by the regional ethics committee in Uppsala and informed consent obtained by appropriate measures from donors or their relatives. […] The islets were then hand-picked and cultured free-floating in CMRL 1066 (ICN Biomedicals, Costa Mesa, CA, USA) supplemented with 10 mM HEPES, 2 mM L-glutamine, 50 jig/ml gentamicin, 0.25 jig/ml fungizone (GIBCO, BRL, Gaithersburg, MD, USA), 20 jig/ml ciprofloxacin (Bayer Healthcare, Leverkusen, Germany), and 10 mM nicotinamide at 37° C. in humidified atmosphere containing 5% CO2, vol/vol and used in the experiments from second day of incubation up to 10 days of culturing.
(§2) The whole-cell patch-clamp configuration was obtained on intact islets using the blind patch-clamp technique (Hamill et al., 1981; Jin et al., 2011; Neher and Sakmann, 1976) and single-channel currents were recorded at room temperature (20-22° C.) or at 34° C. The single intact islet was held by the holding pipette and approached by the recording pipette from the other side (see FIG. 1a). The holding and recording pipettes were made from borosilicate glass. During experiments, the pancreatic islets were perfused with the extracellular solution (mM): 137 NaCl, 5.6 KCl, 2.6 CaCl2, 1.2 MgCl2, 10 HEPES and 20 glucose (pH 7.4 using NaOH) at the rate of 3 mL/min. The intracellular solution consisted of (mM): 135 CsCl, 30 CsOH, 1 MgCl2, 10 EGTA, 5 HEPES and 3 Mg-ATP (pH 7.2 with HCl). Drugs were purchased from Sigma-Aldrich (Steinheim, Germany) or Ascent Scientific (Bristol, UK). Pentobarbital, propofol, GLP-1 and the GABAAR antagonist SR95531 were dissolved in the extracellular solution. Diazepam, zolpidem and the GABAAR antagonist picrotoxin stock solutions were made in dimethyl sulfoxide (DMSO) and then dissolved in the extracellular solution. […] Recordings were done using an Axopatch 200B amplifier, filtered at 2 kHz, digitized on-line at 10 kHz using an analog-to-digital converter and Clampex 10.5 (Molecular Devices, CA, USA) software. The access resistance was monitored and if it changed by more than 25%, the recording was rejected. The single-channel parameters (amplitude, frequency/opening rate, conductance, open probability Po, mean current Imean and mean open time To) were analyzed by Channel3 (Nicholas Laver, Derek Laver, the University of Newcastle, Australia) and Clampfit 10.5 (Molecular Devices, USA). We used a simplified version of a model, previously established by Jones and Westbrook (Jones and Westbrook, 1995) to describe the activation of GABAA receptors (see FIG. 2a model scheme). Simulations of opening rate and mean open time were generated from this theoretical model using the ‘Q-matrix’ method of Colquhoun and Hawkes (Colquhoun and Hawkes, 1981, 1982). We accounted for the effects of missed events due to filtering using the ‘effective rate constant’ method of Blatz and Magleby (Blatz and Magleby, 1986) incorporating an event dead-time of 0.1 ms.

[3] = test system: iGABAARs in human pancreatic islet β cells; type: cell-based
Procedure: as §1, §2

iGABAARII = assay: whole-cell patch-clamp single-channel currents in β cells of intact human islets, iGABAARII; type: cell-based
Procedure: as §1, §2

[4] = 20 mM glucose, with GABA, one T2D donor
[5] = activated by interstitial GABA, room temperature
[6] = diazepam 1 μM, propofol 10 μM, pentobarbital 100 μM, zolpidem 200 nM
[7] = diazepam 1 μM, propofol 10 μM, pentobarbital 100 μM, zolpidem 100 or 200 nM
[8] = GLP-1 application and following washout, n=5

NCCCC(=O)O [GABA, gamma-aminobutyric acid]
time to maximum blood serum level of GABA ([1]; after administration in connection with ingestion of food): approximately 45 minutes
time after which blood serum levels of GABA markedly decrease ([1]; from the administration of GABA): approximately 90 minutes
insulin secretion normalized to the 20 mM glucose response (human islets; 100 nM GABA, 10 ND donors): 1.6±0.2
increase of insulin secretion (human islets; 100 nM GABA, 10 ND donors, average): approximately 60%
insulin secretion normalized to the 20 mM glucose response (human islets; GABA, islets from three ND donors): 0.7±0.01
exocytosis ([2]; 20 mM glucose >10 min, GABA present, ND donors): ~5 granules/min
exocytosis events per area and time ([2]; 20 mM glucose >10 min, GABA present, two ND donors, n=6): 0.095±0.01 10^−3·tm^−2·s^−1
exocytosis [2, 4]: ~1 granules/min
exocytosis events per area and time [2, 4]: 0.019±0.008 10^−3·tm^−2·s^−1
exocytosis for an average-sized cell ([2]; 75 mM K+ depolarization, 100 nM GABA): ~150 granules/min
exocytosis events per area and time ([2]; 75 mM K+ depolarization, 100 nM GABA, n=7): 2.5±0.6 10^−3·tm^−2·s^−1
loss of NPY-Venus from individual granules (decay constant) ([2]; 75 mM K+ depolarization, presence of GABA): 0.86 ± 0.09 s
GABA-activated single-channel conductance (iGABAARI; islets from ND donors): 41±3 pS
GABA-activated single-channel conductance (iGABAARI; islets from T2D donors): 55±5 pS
GABA concentration at maximal rate (frequency) of channel openings (iGABAARI; ND donors): 100 nM
reduction of Ka for GABA activation in T2D donors (iGABAARI; 34° C.): ~3 fold
reduction of Ka for GABA activation in T2D donors (iGABAARI; RT): 6 fold
cord conductance (iGABAARI; [5]): 37 pS
GABA concentration above which receptors are desensitized and stop working [3]: exceeding 1000 nM
optimal GABA concentrations for active iGABAARs [3]: 100 nM to submicromolar
effect on mean current (Imean) ([3]; 100 nM GABA, Vp=−70 mV, 34° C.): significantly (P<0.05) enhanced
effect on open probability (Po) ([3]; 100 nM GABA, Vp=−70 mV, 34° C.): significantly (P<0.05) enhanced
GABA concentration at which GABA-activated Cl− currents were evoked ([3]; GABA applied 1 to 10^4 nM): > 10 nM
effect on mean open times To ([3]; islets from ND and T2D donors): did not affect
effect on rate (frequency) of channel openings ([3]; islets from ND and T2D donors): increased
GABA concentration at which channels start to desensitize ([3]; kinetic model): about 1 μM
GABA concentration at peak opening rate (iGABAARII; ND donors, 34° C.): 1 µM
increase of Ka on raising the temperature to 34° C. (iGABAARII; ND donors, 34° C. vs RT): 23 fold
GABA concentration at peak opening rate (iGABAARII; ND donors, room temperature): 0.1 µM
reduction of Ka for GABA activation in T2D donors (iGABAARII; T2D vs ND donors, 34° C.): 300 fold
cord conductance (iGABAARII; [5]): 76 pS

Cc1ccc(-c2nc3ccc(C)cn3c2CC(=O)N(C)C)cc1 [zolpidem]
effect on mean single-channel current (Imean) [3, 6]: not
effect on opening frequency of iGABAARs [3, 6]: not
modulation of iGABAAR-mediated single-channel currents [3, 7]: did not modulate and not

CCCC(C)C1(CC)C(=O)NC(=O)NC1=O (stereo not shown) [pentobarbital, 5-ethyl-5-(1-methylbutyl)-barbiturate]
effect on mean single-channel current (Imean) [3, 6]: significantly increased
effect on opening frequency of iGABAARs [3, 6]: significantly increased
modulation of iGABAAR-mediated single-channel currents [3, 7]: enhanced

GLP-1: metabolic, gastrointestinal peptide hormone secreted by L-cells in the gut; enhances insulin secretion (HAEGTFTSDVSSYLEGQAAKEFIAWLVKGR; ends and bridges not checked; UniProt P01275 98-127, looked up) [reference compound]
effect on opening frequency of iGABAARI channels (iGABAARI; GLP-1 50 pM, n=6): significantly increased
effect on single-channel conductance (iGABAARI; [8]): did not significantly change
opening frequency / current enhancement after GLP-1 washout (iGABAARI; post GLP-1 vs before GLP-1 application): remained, albeit at a reduced level; also recorded: remained significantly higher
time β-cells remember the GLP-1 activation after GLP-1 is no longer in circulation ([3]; GABA signalling stays elevated in absence of GLP-1): up to 30 minutes
effect on iGABAAR-mediated single-channel currents ([3]; GLP-1 50 pM in the presence of GABA 10 nM): potentiated
effect on single-channel conductance (iGABAARII; [8]): did not significantly change

CC(C)c1cccc(C(C)C)c1O [propofol]
effect on mean single-channel current (Imean) [3]: significantly increased
effect on opening frequency of iGABAARs [3]: significantly increased
modulation of iGABAAR-mediated single-channel currents [3]: enhanced

Br.COc1ccc(-c2ccc(=N)n(CCCC(=O)O)n2)cc1 [SR95531]
inhibition of iGABAAR (GABA-activated) currents [3]: inhibited

CN1C(=O)CN=C(c2ccccc2)c2cc(Cl)ccc21 [diazepam]
effect on mean single-channel current (Imean) [3, 6]: significantly increased
effect on opening frequency of iGABAARs [3, 6]: significantly increased
modulation of iGABAAR-mediated single-channel currents [3, 7]: enhanced

picrotoxin [reference compound]
effect on the GABA-induced change of insulin secretion (human islets; picrotoxin added with GABA, ND donors): reversed
inhibition of iGABAAR (GABA-activated) currents ([3]; antagonist 100 μM where stated): inhibited
